Six compounds from ChEMBL document CHEMBL1909046, “DrugMatrix in vitro pharmacology data” can be followed below.

The target in one data set is T1, Thromboxane-A synthase (Homo sapiens, UniProt P24557).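 Also: enzyme inhibition assay with PGH2 supplied as substrate; in other assays of this panel Not Active means under 50% inhibition at 10 µM.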
T1 sequence (P24557 whole entry): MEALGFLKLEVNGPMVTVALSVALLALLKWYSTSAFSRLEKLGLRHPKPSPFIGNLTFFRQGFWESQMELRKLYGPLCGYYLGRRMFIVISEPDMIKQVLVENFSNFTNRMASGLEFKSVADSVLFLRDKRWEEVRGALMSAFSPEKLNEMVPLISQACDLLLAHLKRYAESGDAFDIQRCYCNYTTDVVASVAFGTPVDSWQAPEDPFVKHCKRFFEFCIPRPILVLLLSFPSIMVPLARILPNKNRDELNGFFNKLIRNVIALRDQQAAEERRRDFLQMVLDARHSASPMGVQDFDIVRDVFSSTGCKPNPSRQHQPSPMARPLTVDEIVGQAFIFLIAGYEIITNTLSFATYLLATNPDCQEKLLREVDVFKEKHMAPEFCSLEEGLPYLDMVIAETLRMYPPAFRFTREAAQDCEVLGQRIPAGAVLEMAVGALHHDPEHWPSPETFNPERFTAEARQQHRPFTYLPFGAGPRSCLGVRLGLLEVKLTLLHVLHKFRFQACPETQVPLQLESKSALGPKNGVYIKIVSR
Kind of data set: biochemical. The class given is tissue-based, Platelet. The settings on record: platelet.

Data set [1] concerns the target T2, 5-hydroxytryptamine receptor 2C (Homo sapiens, UniProt P28335).
T2 sequence (P28335 whole entry): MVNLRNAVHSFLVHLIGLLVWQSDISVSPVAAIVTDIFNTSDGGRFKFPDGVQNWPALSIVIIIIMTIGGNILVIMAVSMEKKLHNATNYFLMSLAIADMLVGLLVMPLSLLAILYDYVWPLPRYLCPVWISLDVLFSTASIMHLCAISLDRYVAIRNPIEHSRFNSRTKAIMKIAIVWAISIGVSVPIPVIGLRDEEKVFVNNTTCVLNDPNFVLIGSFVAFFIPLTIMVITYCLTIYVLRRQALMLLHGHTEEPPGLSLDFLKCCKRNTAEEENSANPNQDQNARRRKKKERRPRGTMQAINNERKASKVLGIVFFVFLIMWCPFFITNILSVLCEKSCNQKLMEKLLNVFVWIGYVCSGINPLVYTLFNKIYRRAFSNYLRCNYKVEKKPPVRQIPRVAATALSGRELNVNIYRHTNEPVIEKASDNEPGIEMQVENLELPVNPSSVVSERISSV
Description: DRUGMATRIX: Serotonin (5-Hydroxytryptamine) 5-HT2C radioligand binding (ligand: [3H] Mesulergine). The class given is cell membranes, CHO-K1, Membrane. The settings on record: cho-k1; Not Active = under 50% inhibition at 10 µM.

The target in data set [2] is Platelet-activating factor receptor (Homo sapiens, UniProt P25105). Description: biochemical. The settings on record: platelet. It counts as tissue-based. Also: in other assays of this panel Not Active means under 50% inhibition at 10 µM.
Data set [3] addresses Sigma non-opioid intracellular receptor 1 (Homo sapiens, UniProt Q99720). Description: DRUGMATRIX: Sigma1 radioligand binding (ligand: [3H] Haloperidol). It counts as cell membranes, Jurkat, Membrane. The settings on record: jurkat; Not Active = under 50% inhibition at 10 µM.
Data set [4] is described as follows: DRUGMATRIX: Atrial Natriuretic Factor (ANF) radioligand binding (ligand: [125I] ANF (rat)). It counts as cell membranes, Cavia porcellus, Dunkin-Hartley, Adrenal gland, Membrane. Particulars: Not Active = under 50% inhibition at 10 µM.
The target of data set [5] is T3, Receptor-type tyrosine-protein phosphatase C (Homo sapiens, UniProt P08575).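 Also: inhibition of CD45 enzyme activity measured using DiFMUP as substrate; in other assays of this panel Not Active means under 50% inhibition at 10 µM.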
T3 sequence (P08575 whole entry): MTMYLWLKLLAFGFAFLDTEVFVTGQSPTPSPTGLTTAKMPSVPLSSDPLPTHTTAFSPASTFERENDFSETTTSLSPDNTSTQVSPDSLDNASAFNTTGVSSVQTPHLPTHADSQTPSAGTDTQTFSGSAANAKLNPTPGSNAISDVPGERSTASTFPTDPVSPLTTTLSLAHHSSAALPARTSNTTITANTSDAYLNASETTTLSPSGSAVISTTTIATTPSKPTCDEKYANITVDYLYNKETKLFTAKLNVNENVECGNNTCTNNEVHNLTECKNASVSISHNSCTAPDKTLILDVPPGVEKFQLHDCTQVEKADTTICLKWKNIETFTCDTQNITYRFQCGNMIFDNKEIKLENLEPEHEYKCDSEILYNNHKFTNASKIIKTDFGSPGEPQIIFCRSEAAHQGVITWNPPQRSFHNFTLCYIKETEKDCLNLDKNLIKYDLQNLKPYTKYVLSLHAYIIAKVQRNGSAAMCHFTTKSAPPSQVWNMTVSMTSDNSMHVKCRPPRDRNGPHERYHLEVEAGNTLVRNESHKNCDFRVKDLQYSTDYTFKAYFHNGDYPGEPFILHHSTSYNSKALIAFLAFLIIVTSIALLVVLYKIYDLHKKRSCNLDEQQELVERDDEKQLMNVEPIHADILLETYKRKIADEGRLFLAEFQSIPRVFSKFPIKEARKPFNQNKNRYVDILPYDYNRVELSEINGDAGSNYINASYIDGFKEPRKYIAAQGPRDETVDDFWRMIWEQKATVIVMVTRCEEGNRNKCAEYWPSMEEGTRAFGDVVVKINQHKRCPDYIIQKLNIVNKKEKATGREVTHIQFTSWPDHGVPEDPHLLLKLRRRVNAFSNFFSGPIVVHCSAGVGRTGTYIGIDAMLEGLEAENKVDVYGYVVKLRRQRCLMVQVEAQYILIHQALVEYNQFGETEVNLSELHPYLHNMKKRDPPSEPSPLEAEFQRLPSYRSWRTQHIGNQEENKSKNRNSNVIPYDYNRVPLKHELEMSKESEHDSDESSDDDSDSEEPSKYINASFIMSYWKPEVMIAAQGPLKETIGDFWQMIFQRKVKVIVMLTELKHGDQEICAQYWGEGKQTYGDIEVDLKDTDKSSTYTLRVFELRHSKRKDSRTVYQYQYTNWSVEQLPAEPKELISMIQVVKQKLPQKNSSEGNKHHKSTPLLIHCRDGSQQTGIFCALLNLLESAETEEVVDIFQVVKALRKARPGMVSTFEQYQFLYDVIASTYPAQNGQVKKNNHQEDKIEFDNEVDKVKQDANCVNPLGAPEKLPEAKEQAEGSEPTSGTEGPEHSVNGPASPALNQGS
On the set-up: species or system Escherichia coli.

In data set [6] the target is Sodium-dependent noradrenaline transporter (Homo sapiens, UniProt P23975). Description: DRUGMATRIX: Norepinephrine Transporter radioligand binding (ligand: [125I] RTI-55). It counts as cell membranes, MDCK, Membrane. Particulars: mdck; Not Active = under 50% inhibition at 10 µM.
For data set [7], the target named is Voltage-gated inwardly rectifying potassium channel KCNH2 (Homo sapiens, UniProt Q12809). Particulars: hek293. Also: in other assays of this panel Not Active means under 50% inhibition at 10 µM.
Data set [8] can be described thus: DRUGMATRIX: Glutamate, NMDA, Agonism radioligand binding (ligand: [3H] CGP-39653). The settings on record: Not Active = under 50% inhibition at 10 µM. The class given is cell membranes, Rattus norvegicus, Wistar, Cerebral cortex, Membrane.
In a further data set the target is Adenosine receptor A2a (Homo sapiens, UniProt P29274). Kind of data set: DRUGMATRIX: Adenosine A2A radioligand binding (ligand: […]). It counts as cell membranes, HEK293, Membrane. The settings on record: hek293; Not Active = under 50% inhibition at 10 µM.
Sequence of Adenosine receptor A2a (P29274 whole entry): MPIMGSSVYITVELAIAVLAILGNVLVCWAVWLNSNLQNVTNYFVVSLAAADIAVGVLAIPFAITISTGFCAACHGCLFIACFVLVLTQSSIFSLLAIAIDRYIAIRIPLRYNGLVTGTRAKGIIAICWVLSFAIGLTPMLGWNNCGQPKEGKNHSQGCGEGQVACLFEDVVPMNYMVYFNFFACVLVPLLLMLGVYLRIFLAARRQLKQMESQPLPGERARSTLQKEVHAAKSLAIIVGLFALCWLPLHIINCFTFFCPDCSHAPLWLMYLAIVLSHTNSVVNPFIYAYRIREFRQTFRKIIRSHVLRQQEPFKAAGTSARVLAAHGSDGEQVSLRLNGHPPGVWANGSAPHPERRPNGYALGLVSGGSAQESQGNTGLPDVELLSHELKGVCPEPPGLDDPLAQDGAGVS

Sequence of Sodium-dependent noradrenaline transporter (P23975 whole entry): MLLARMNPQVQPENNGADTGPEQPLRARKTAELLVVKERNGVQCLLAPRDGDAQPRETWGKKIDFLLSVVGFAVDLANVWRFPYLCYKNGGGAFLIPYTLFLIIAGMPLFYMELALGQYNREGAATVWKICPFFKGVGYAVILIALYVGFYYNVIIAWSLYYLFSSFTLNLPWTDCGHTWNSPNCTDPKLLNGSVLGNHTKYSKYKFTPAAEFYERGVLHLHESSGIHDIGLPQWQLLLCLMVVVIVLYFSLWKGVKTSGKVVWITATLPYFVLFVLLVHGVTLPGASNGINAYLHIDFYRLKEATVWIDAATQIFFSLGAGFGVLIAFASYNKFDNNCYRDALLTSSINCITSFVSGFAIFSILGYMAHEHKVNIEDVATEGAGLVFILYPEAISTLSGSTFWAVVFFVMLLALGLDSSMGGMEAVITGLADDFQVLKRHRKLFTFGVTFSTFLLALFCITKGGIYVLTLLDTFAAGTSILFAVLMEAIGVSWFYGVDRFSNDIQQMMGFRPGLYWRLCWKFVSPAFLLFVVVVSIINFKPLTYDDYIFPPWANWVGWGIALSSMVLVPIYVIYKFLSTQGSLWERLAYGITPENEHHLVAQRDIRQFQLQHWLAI
Sequence of Sigma non-opioid intracellular receptor 1 (Q99720 whole entry): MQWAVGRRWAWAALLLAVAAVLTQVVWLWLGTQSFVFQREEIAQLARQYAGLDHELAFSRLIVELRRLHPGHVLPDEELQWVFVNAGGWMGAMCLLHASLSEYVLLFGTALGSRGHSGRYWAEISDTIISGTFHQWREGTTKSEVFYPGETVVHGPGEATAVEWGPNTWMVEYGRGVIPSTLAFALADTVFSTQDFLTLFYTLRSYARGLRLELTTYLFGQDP
Sequence of Platelet-activating factor receptor (P25105 whole entry): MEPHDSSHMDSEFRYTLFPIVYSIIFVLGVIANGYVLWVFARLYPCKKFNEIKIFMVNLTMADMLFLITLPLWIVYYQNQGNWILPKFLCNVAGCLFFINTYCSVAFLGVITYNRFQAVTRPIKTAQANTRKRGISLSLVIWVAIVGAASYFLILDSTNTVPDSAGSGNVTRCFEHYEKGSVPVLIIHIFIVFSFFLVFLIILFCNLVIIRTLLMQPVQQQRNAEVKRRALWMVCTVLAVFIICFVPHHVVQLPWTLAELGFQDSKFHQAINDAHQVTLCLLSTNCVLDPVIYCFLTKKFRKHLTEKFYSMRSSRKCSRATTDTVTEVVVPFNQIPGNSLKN
Sequence of Voltage-gated inwardly rectifying potassium channel KCNH2 (Q12809 whole entry): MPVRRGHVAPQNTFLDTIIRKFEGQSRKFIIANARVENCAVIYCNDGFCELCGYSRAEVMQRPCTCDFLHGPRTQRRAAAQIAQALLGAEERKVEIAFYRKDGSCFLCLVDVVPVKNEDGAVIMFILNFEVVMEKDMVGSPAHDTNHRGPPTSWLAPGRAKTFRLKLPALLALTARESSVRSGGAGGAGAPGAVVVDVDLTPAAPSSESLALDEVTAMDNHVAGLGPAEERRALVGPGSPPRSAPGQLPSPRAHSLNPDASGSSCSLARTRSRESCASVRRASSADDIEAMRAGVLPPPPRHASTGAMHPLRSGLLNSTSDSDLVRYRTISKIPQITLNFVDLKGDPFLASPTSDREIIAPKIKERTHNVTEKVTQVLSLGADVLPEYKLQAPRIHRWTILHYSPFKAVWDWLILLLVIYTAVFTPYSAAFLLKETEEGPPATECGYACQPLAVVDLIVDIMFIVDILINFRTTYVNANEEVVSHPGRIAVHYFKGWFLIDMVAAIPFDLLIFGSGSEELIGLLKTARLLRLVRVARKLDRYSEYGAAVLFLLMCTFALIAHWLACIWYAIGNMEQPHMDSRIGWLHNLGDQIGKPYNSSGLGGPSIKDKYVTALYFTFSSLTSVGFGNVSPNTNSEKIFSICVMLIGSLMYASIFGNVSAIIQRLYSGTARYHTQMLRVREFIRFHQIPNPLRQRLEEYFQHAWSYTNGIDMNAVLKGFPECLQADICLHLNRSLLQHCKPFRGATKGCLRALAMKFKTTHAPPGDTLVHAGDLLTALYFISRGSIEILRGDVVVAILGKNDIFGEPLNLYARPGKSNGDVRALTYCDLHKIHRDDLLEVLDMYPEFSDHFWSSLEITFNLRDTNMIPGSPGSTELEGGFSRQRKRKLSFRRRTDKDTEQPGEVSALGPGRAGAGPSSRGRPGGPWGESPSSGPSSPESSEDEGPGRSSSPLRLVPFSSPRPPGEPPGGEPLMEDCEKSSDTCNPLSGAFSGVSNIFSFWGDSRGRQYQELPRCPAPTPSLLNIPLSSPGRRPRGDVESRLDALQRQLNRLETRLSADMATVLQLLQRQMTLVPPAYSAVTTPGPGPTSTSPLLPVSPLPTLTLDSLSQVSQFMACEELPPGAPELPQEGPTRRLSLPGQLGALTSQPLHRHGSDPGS

As for `CCC1(c2ccccc2)C(=O)NCNC1=O` [PRIMIDONE], the IC50 result (against Thromboxane-A synthase; in [1]; in data set [2]; in [3]; in data set [4]; in [5]) was “Not Active” throughout. For the same compound, the IC50 entry (in data set [6]; in data set [7]; in data set [8]; on Adenosine receptor A2a) was “Not Active” each time. In addition, the Ki result in data set [4], in data set [7] and in data set [8] was “Not Active” throughout.
For the compound `CCCc1cc(=O)[nH]c(=S)[nH]1` [PROPYLTHIOURACIL], the IC50 result (on Thromboxane-A synthase; in data set [1]; in [2]; in data set [3]; in [4]; in [5]) was “Not Active” each time. Besides, the IC50 entry (in data set [6]; in [7]; in [8]; at Adenosine receptor A2a) was “Not Active” throughout. The Ki result in data set [4], in data set [7] and in [8] was “Not Active” in each case.
In the case of CARBOPLATIN, the IC50 result (at Thromboxane-A synthase; in data set [1]; in [2]; in data set [3]; in data set [4]; in data set [5]) was “Not Active” throughout. The IC50 result (in data set [6]; in data set [7]; in data set [8]; at Adenosine receptor A2a) was “Not Active” in each case. The Ki entry (on Thromboxane-A synthase; in data set [1]; in data set [2]; in data set [3]; in [4]; in data set [5]) was “Not Active” each time. The Ki result (in data set [6]; in data set [7]; in data set [8]; at Adenosine receptor A2a) was “Not Active” in each case.
For CISPLATIN, the IC50 at Thromboxane-A synthase (read-out: IC50) is 9.35 µM; in data set [1] it was “Not Active”; in data set [2] it was “Not Active”; in [3], “Not Active”; in data set [4], “Not Active”; in [5] it was “Not Active”. The IC50 result (in data set [6]; in data set [7]; in data set [8]; on Adenosine receptor A2a) was “Not Active” each time. Further, the Ki entry in data set [1], in data set [2], in [3], in data set [4], in [5] and in [6] was “Not Active” throughout. Moreover, the Ki entry (in data set [7]; in data set [8]; at Adenosine receptor A2a) was “Not Active” throughout.
As to GOLD SODIUM THIOMALATE, the IC50 result (at Thromboxane-A synthase; in [1]; in [2]; in data set [3]; in data set [4]; in data set [5]) was “Not Active” each time. The IC50 entry (in data set [6]; in [7]; in [8]; on Adenosine receptor A2a) was “Not Active” in each case. The Ki result (at Thromboxane-A synthase; in data set [1]; in data set [2]; in data set [3]; in data set [4]; in data set [5]) was “Not Active” throughout. Further, the Ki result (in data set [6]; in data set [7]; in [8]; at Adenosine receptor A2a) was “Not Active” each time.
With OXALIPLATIN, the IC50 result (at Thromboxane-A synthase; in data set [1]; in data set [2]; in [3]; in data set [4]; in data set [5]) was “Not Active” each time. Moreover, the IC50 result (in [6]; in data set [7]; in [8]; on Adenosine receptor A2a) was “Not Active” each time. Besides, the Ki entry (at Thromboxane-A synthase; in data set [1]; in [2]; in [3]; in [4]; in data set [5]) was “Not Active” in each case. Also, the Ki result (in data set [6]; in [7]; in [8]; at Adenosine receptor A2a) was “Not Active” in each case.

For orientation: IC50 means the midpoint of a concentration-inhibition curve.
